pEC50: −log10 of the molar value. Read-outs that look alike come from different tables or passages of the source.
Columns and labels:
mouse RORγ = target: T1, mouse RORγ (Mus musculus, UniProt P51450); assay: Luciferase reporter gene assay of inhibitory effect against RORγ transcriptional activity (GAL4-mRORγ plasmid in CHO cells); assay type: cell-based; conditions: for EC50: read-out: LUC EC50 (μM) mRORg; for pEC50: read-out: LUC EC50 mRORg
T1 construct: mouse, NM_011281.2 and from Ile251 to Lys516; expressed in transfected cells; host or cells: CHO cells (transient co-transfection with pG5-Luc reporter)
T1 sequence (P51450 251-516): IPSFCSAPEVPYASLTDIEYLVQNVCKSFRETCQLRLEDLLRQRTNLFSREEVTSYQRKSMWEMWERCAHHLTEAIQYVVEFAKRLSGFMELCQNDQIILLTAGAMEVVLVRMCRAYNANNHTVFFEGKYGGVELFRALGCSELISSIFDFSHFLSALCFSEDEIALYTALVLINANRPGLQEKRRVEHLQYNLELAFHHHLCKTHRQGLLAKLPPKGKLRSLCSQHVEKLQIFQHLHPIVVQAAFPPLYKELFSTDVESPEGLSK
How it was run: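 CHO cells transiently co-transfected with GAL4-mouse RORγ LBD (Ile251–Lys516) and GAL4-dependent luciferase reporter; eight compound concentrations, 0.1% DMSO, 2 days at 37 °C. Luminescence as %-of-vehicle control; EC50 by curve fit, cytotoxic concentrations excluded.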

human RORγ = target: T2, human RORγ (Homo sapiens, UniProt P51449); assay: Luciferase reporter gene assay of inhibitory effect against RORγ transcriptional activity (GAL4-hRORγ plasmid in CHO cells); assay type: cell-based; conditions: for EC50: read-out: LUC EC50 (μM) hRORg; for pEC50: read-out: LUC EC50 hRORg
T2 construct: human, NM_005060.3 and from Ser253 to Lys518; expressed in transfected cells; host or cells: CHO cells (transient co-transfection with pG5-Luc reporter)
T2 sequence (P51449 253-518): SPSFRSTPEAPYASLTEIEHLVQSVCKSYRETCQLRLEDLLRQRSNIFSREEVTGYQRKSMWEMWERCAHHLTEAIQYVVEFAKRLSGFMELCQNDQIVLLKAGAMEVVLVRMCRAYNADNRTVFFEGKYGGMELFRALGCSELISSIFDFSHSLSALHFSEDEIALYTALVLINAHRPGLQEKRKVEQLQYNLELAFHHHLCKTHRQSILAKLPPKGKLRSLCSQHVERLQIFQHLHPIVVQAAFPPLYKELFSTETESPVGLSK

SMILES	EC50 (mouse RORγ)	EC50 (human RORγ)	pEC50 (mouse RORγ)	pEC50 (human RORγ)
COc1cc(C)ccc1CNC(=O)CCc1nnc(CCC2CCCCC2)n1C1CC1 [Example F-188]	< 3 µM	< 3 µM	–	–
Cc1c(Cl)cccc1NC(=O)CCc1nnc(COCc2ccccc2)n1C1CC1 [Example F-166]	< 3 µM	> 3 µM	–	–
Cc1ccc(NC(=O)CCc2noc([C@H]3C[C@@H](CC(C)C)C3)c2/C=C/C(=O)O)c(C)c1 [Example F-646]	–	–	< 5.52	< 5.52
Cc1ccc(NC(=O)C[C@H](CCO)c2nnc(-c3cc(CCC(C)C)on3)n2C2CC2)c(C)c1 [Example F-615]	–	–	> 5.52	> 5.52
CCC(C)(C)C[C@H]1C[C@@H](c2onc([C@@H](CCC(=O)O)CC(=O)Nc3ccc(C)nc3C)c2C2CC2)C1 [Example F-692]	–	–	> 5.52	> 5.52
COc1cc(C)ccc1CNC(=O)CC(CCO)c1nnc(CCCC(C)C)n1C1CC1 (racemic) [Example F-202]	< 3 µM	< 3 µM	–	–
COc1cc(C)ccc1CNC(=O)[C@H]1CCN(C(C)=O)[C@@H]1c1nnc(CCCC(C)(C)C)n1C1CC1 [Example F-297]	< 3 µM	< 3 µM	–	–
Cc1cccc(NC(=O)CCc2nnc(CCC(C)C)n2C2CC2)c1C [Example F-78]	< 3 µM	> 3 µM	–	–
COc1cc(NC(=O)C[C@H](CCO)c2nnc([C@H]3C[C@@H](CC(C)C)C3)n2C2CC2)ccc1Cl [Example F-520]	–	–	> 5.52	> 5.52
CC(=O)N1C[C@H](C(=O)Nc2ccc(C)cc2C)[C@@H](c2nnc(CCC(C)(C)C(C)C)n2C2CC2)C1 (racemic) [Example F-321]	< 3 µM	< 3 µM	–	–
CCn1c(CCC(=O)NC23CC4CC(CC(C4)C2)C3)nnc1C1Cc2ccccc2C1 [Example F-24]	> 3 µM	> 3 µM	–	–
CCn1c(CCC(=O)Nc2cc(C)cc(C)c2)nnc1CCC(C)(C)C [Example F-46]	> 3 µM	> 3 µM	–	–
Cc1ccc(NC(=O)CC(CCCO)c2nnc(CCCC(C)(C)C)n2CC(F)(F)F)c(C)c1 (racemic) [Example F-401]	< 3 µM	< 3 µM	–	–
Cc1c(NC(=O)CCc2nnc(CCC(C)C)n2C2CC2)cccc1C1CC1 [Example F-156]	< 3 µM	> 3 µM	–	–
Cc1ccc(NC(=O)CCc2nnc([C@H]3C[C@H](CC(C)C)C3)n2C2CC2)c(C)c1 [Example F-357]	< 3 µM	< 3 µM	–	–
Cc1ccc(NC(=O)C[C@H](CCO)c2nnc(-c3cc(CC(C)C)on3)n2C2CC2)c(C)c1 [Example F-659]	–	–	> 5.52	> 5.52
Cc1ccc(NC(=O)C[C@H](CCC(=O)O)c2noc(-c3cc(CCC(C)C)on3)c2C2CC2)c(Cl)c1 [Example E-05]	< 3 µM	< 3 µM	–	–
CCn1c(CCC(=O)Nc2ccc(C)cc2C)nnc1CCC1CCCCC1 [Example F-40]	< 3 µM	< 3 µM	–	–
CNC(=O)C(C)(C)C[C@H]1C[C@@H](c2onc([C@@H](CCC(=O)O)CC(=O)Nc3ccc(C)cc3Cl)c2C2CC2)C1 [Example F-728]	–	–	> 5.52	> 5.52
Cc1ccc(NC(=O)C[C@H](CCC(=O)O)c2noc(-c3cc(CC(C)C)[nH]n3)c2C2CC2)c(F)c1 [Example E-07]	> 3 µM	> 3 µM	–	–
CCCn1c(CCC(=O)Nc2cccc3ccccc23)nnc1C1Cc2ccccc2C1 [Example F-5]	> 3 µM	> 3 µM	–	–
Cc1ccc(NC(=O)[C@H]2CN(S(=O)(=O)C(F)(F)F)C[C@@H]2c2nnc([C@H]3C[C@@H](CC(C)(C)C)C3)n2C2CC2)c(C)c1 [Example F-542]	–	–	> 5.52	> 5.52
Cc1ccc(NC(=O)C[C@H](CCO)c2nnc(CCCC(C)(C)C)n2C2CC2)c(C)c1 [Example F-327]	< 3 µM	< 3 µM	–	–
CC(C)n1c(CCC(=O)Nc2cccc3ccccc23)nnc1C1Cc2ccccc2C1 [Example F-6]	> 3 µM	> 3 µM	–	–
CC(C)(C)Cc1cc(-c2onc([C@@H](CCC(=O)O)CC(=O)Nc3ccc(Cl)cc3Cl)c2C2CC2)no1 [Example E-78]	–	–	> 5.52	> 5.52
Cc1ccc(NC(=O)C[C@H](CCC(=O)O)c2noc3c2C(C)CCC3CCC(C)C)c(Cl)c1 (mixture of isomers) [Example F-691]	–	–	> 5.52	> 5.52

SMILES	EC50 (mouse RORγ)	EC50 (human RORγ)	pEC50 (mouse RORγ)	pEC50 (human RORγ)
Cc1ccc(NC(=O)CC(CCC(N)=O)c2nnc(CCCC(C)C)n2C2CC2)c(C)c1 (racemic) [Example F-284]	> 3 µM	> 3 µM	–	–
Cc1ccc(NC(=O)C[C@H](N)c2nnc(CCCC(C)(C)C)n2C2CC2)c(C)c1 [Example F-359]	< 3 µM	< 3 µM	–	–
Cc1cc(C)c(NC(=O)C[C@H](CCC(=O)O)c2noc([C@H]3C[C@@H](CC(C)(C)C)C3)c2C2CC2)cn1 [Example F-675]	–	–	> 5.52	> 5.52
Cc1ccc(NC(=O)CC(CCCN)c2nnc(CCCC(C)C)n2C2CC2)c(C)c1 (racemic) [Example F-282]	> 3 µM	> 3 µM	–	–
CC(=O)OCCC1(c2onc(CCC(=O)Nc3ccc(C)cc3Cl)c2C2CC2)CC(CC(C)(C)C)C1 (mixture of isomers) [Example F-737]	–	–	< 5.52	< 5.52
CC(C)(C)Cc1cc(-c2onc([C@@H](CCC(=O)O)CC(=O)Nc3ccc(F)cc3Cl)c2C2CC2)no1 [Example E-57]	< 3 µM	< 3 µM	–	–
Cc1ccc(NC(=O)C[C@H](CCCO)c2nnn([C@H]3C[C@@H](CC(C)(C)C(C)C)C3)c2C2CC2)c(F)c1 [Example F-709]	–	–	> 5.52	> 5.52
Cc1c(Cl)cccc1NC(=O)CCc1nnc(C2CN(C(=O)C(C)C)C2)n1C1CC1 [Example F-259]	> 3 µM	> 3 µM	–	–
Cc1c(Cl)cccc1NC(=O)CCc1nnc(CCC2CCCNC2)n1C1CC1 (racemic) [Example F-189]	> 3 µM	> 3 µM	–	–
Cc1ccc(NC(=O)CC(CCOC(=O)N(C)C)c2nnc([C@H]3C[C@@H](CC(C)C)C3)n2C2CC2)c(C)c1 (mixture of isomers) [Example F-484]	< 3 µM	< 3 µM	–	–
CC(C)CCc1nnc(CCC(=O)NCc2ccc(Cl)cc2)n1C1CC1 [Example F-122]	> 3 µM	> 3 µM	–	–
CCc1cccc(NC(=O)CCc2nnc(CCC(C)C)n2C2CC2)c1 [Example F-132]	> 3 µM	> 3 µM	–	–
COc1cccc(CNC(=O)CCc2nnc(CCC(C)C)n2C2CC2)c1C [Example F-127]	> 3 µM	> 3 µM	–	–
Cc1c(Cl)cccc1NC(=O)[C@H]1CN(C(=O)CO)C[C@@H]1c1nnc(CCC(C)C)n1C1CC1 (racemic) [Example F-146]	< 3 µM	> 3 µM	–	–
COc1ccc(NC(=O)CCc2nnc(CCC(C)C)n2C2CC2)c(C)c1 [Example F-82]	> 3 µM	> 3 µM	–	–
Cc1ccc(NC(=O)[C@H](CCC(=O)O)Cc2noc([C@H]3C[C@@H](CC(C)(C)C)C3)c2C2CC2)c(Cl)c1 [Example F-683]	–	–	> 5.52	> 5.52
Cc1ccc(NC(=O)C[C@@H](CC(C)(C)O)c2nnc([C@H]3C[C@@H](CC(C)C)C3)n2C2CC2)c(C)c1 [Example F-598]	–	–	< 5.52	< 5.52
Cc1ccc(NC(=O)C[C@H](OCC(F)(F)F)c2nnc(-c3cc(CC(C)C)on3)n2C2CC2)c(C)c1 [Example F-629]	–	–	> 5.52	> 5.52
C=CCC(CC(=O)Nc1cccc(Cl)c1C)c1nnc(CCC2CCCCC2)n1C1CC1 (racemic) [Example F-244]	< 3 µM	< 3 µM	–	–
Cc1ccc(NC(=O)C(C)C(CCOCc2ccccc2)c2nnc([C@H]3C[C@@H](CC(C)C)C3)n2C2CC2)c(C)c1 (some centres unmarked) [Example F-489]	< 3 µM	> 3 µM	–	–
CC(=O)N1C[C@H](C(=O)Nc2ccc(C)cc2C)[C@@H](c2nnc(CCCC(C)C)n2C2CC2)C1 [Example F-315]	< 3 µM	< 3 µM	–	–
COc1cc(F)ccc1CNC(=O)CCc1nnc(CCC(C)C)n1C1CC1 [Example F-229]	> 3 µM	> 3 µM	–	–
Cc1ccc(NC(=O)C[C@H](CC(O)C(F)(F)F)c2nnc([C@H]3C[C@@H](CC(C)C)C3)n2C2CC2)c(C)c1 (single isomer, unassigned) [Example F-621]	–	–	> 5.52	> 5.52
Cc1c(Cl)cccc1NC(=O)CC(CCO)c1nnc(CCC(C)C)n1C1CC1 (racemic) [Example F-175]	< 3 µM	< 3 µM	–	–
COc1cccc(NC(=O)[C@H]2CN(C(C)=O)C[C@@H]2c2nnc(CCCC(C)(C)C)n2C2CC2)c1C (racemic) [Example F-332]	< 3 µM	< 3 µM	–	–
Cc1ccc(NC(=O)C[C@@H](CCO)c2nnc(CCCC(C)C)n2C2CC2)c(C)c1 [Example F-313]	> 3 µM	> 3 µM	–	–

From patent publication US20160137639A1, “TRIAZOLE-ISOXAZOLE COMPOUND AND MEDICAL USE THEREOF” (JAPAN TOBACCO INC., priority 2012, published 2016)
